According to patent US20230295087A1, “AGONISTS OF ROR GAMMAt” (BRISTOL-MYERS SQUIBB COMPANY, priority 2019, published 2023):

What follows are molecules tested against T1, human RORgT (Homo sapiens, UniProt P51449) (assay: RORgT Gal4 Luciferase Reporter Gene Assay). Conditions: engineered Jurkat cells overexpressing RORgT (LBD or full length) fused with Gal4 Luc reporter; 18 hours at 37° C.; luminescence.
T1 construct: expressed in transfected cells
T1 sequence (P51449 267-516): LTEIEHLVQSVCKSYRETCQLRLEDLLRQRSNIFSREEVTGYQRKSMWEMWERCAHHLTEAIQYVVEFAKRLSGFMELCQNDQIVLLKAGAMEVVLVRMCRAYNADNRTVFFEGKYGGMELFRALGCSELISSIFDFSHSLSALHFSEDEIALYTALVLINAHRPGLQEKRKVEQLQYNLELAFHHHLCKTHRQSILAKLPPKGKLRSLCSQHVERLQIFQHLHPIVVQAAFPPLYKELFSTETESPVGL
Format: cell-based
Method: RORgT Gal4 Luciferase Reporter Gene Assay
25 µL of cryopreserved Jurkat cells over expressing ligand binding domain (LBD) of RORgT (aa267-516, NM_005060) and Gal4 Luc, or full length of human RORgT and Gal4 Luc, were plated in 384-well solid white cell culture plates (PerkinElmer 6007899), with a density of 10,000 cells/well in RPMI 1640 cell culture media (Gibco 11875-085). The media contained 0.1% BSA, 10 mM HEPES (Gibco 15360-080), […] Sodium Pyruvate (Gibco 11360-040), […] Hygromycin B (Invitrogen 10687-010), and […] Blasticidin (Invitrogen R210-01).
100 nL of compound at varying concentrations in 3-fold serial dilution, with final concentrations ranging from 40 µM to 0.67 nM, were added to the cells using Labcyte Echo 550. The compound and the cells were incubated for 18 hours at 37° C. in a cell culture incubator. Cells were then lysed with 15 uL of Steady-Glo Luciferase Assay reagent (Promega EZ550), followed by centrifuging the assay plates at 1500 RPM for 1 minute. Subsequently, the plates were read on the Envision (PerkinElmer). The inhibition of constitutive activity of RORgT achieved by graded concentrations of compound was calculated as a percentage of the luminescence signal window reduction over a control compound.

| Structure (SMILES) | EC50 |
| --- | --- |
| O=C(C1CCC(B(O)O)CC1)N1CC[C@@]2(S(=O)(=O)c3ccc(F)cc3)c3ccc(OCc4c(F)cccc4C(F)(F)F)cc3CC[C@@H]12 (stereo partly drawn) [Example 13, (4-((3aR,9bR)-7-((2-fluoro-6-(trifluoromethyl)benzyl)oxy)-9b-((4-fluorophenyl)sulfonyl)-2,3,3a,4,5,9b-hexahydro-1H-benzo[e]indole-3-carbonyl)cyclohexyl)boronic acid] | 1.5 nM |
| O=C(C1CCC(B(O)O)CC1)N1CC[C@@]2(S(=O)(=O)c3ccc(F)cc3)c3ccc(OCc4c(F)cccc4C(F)(F)F)cc3CC[C@@H]12 (stereo partly drawn) [Example 14, (4-((3aR,9bR)-7-((2-fluoro-6-(trifluoromethyl)benzyl)oxy)-9b-((4-fluorophenyl)sulfonyl)-2,3,3a,4,5,9b-hexahydro-1H-benzo[e]indole-3-carbonyl)cyclohexyl)boronic acid] | 1.8 nM |
| O=C(CC1CCS(=O)(=O)C1)N1CC[C@@]2(S(=O)(=O)c3ccc(F)cc3)c3ccc(OCc4c(F)cccc4Cl)cc3CC[C@@H]12 (stereo partly drawn) [Example 15, 3-{2-[(3aR,9bR)-7-[(2-chloro-6-fluorophenyl)methoxy]-9b-(4-fluorobenzenesulfonyl)-1H,2H,3H,3aH,4H,5H,9bH-benzo[e]indol-3-yl]-2-oxoethyl}-1λ^6-thiolane-1,1-dione] | 3.8 nM |
| O=C(N1CC[C@@]2(S(=O)(=O)c3ccc(F)cc3)c3ccc(OCc4c(F)cccc4Cl)cc3CC[C@@H]12)C1(O)CCS(=O)(=O)CC1 [Example 16, 4-[(3aR,9bR)-7-[(2-chloro-6-fluorophenyl)methoxy]-9b-(4-fluorobenzenesulfonyl)-1H,2H,3H,3aH,4H,5H,9bH-benzo[e]indole-3-carbonyl]-4-hydroxy-1λ^6-thiane-1,1-dione] | 5.5 nM |
| O=C(C1CCS(=O)(=O)C1)N1CC[C@@]2(S(=O)(=O)c3ccc(F)cc3)c3ccc(OCc4c(F)cccc4Cl)cc3CC[C@@H]12 (stereo partly drawn) [Example 18, 3-[(3aR,9bR)-7-[(2-chloro-6-fluorophenyl)methoxy]-9b-(4-fluorobenzenesulfonyl)-1H,2H,3H,3aH,4H,5H,9bH-benzo[e]indole-3-carbonyl]-1λ^6-thiolane-1,1-dione] | 6 nM |
| CC1(C(=O)N2CC[C@@]3(S(=O)(=O)c4ccc(F)cc4)c4ccc(OCc5c(F)cccc5C(F)(F)F)cc4CC[C@@H]23)CCS(=O)(=O)CC1 [Example 19] | 14 nM |
| O=C([C@@H](O)C(F)(F)F)N1CC[C@@]2(S(=O)(=O)c3ccc(F)cc3)c3ccc(OCc4c(F)cccc4C(F)(F)F)cc3CC[C@@H]12 [Example 20, (2R)-1-[(3aR,9bR)-7-{[2-fluoro-6-(trifluoromethyl)phenyl]methoxy} -9b-(4-fluorobenzenesulfonyl)-1H,2H,3H,3aH,4H,5H,9bH-benzo[e]indol-3-yl]-3,3,3-trifluoro-2-hydroxypropan-1-one] | 42 nM |
| C[C@]1(C(=O)O)CC[C@H](C(=O)N2CC[C@@]3(S(=O)(=O)c4ccc(F)cc4)c4ccc(OCc5c(F)cccc5Cl)cc4CC[C@@H]23)CC1 [Example 21, (1r,4r)-4-[(3aR,9bR)-7-[(2-chloro-6-fluorophenyl)methoxy]-9b-(4-fluorobenzenesulfonyl)-1H,2H,3H,3aH,4H,5H,9bH-benzo[e]indole-3-carbonyl]-1-methylcyclohexane-1-carboxylic acid] | 10 nM |
| C[C@@H]1C[C@@H](C(=O)O)CC[C@@H]1C(=O)N1CC[C@@]2(S(=O)(=O)c3ccc(F)cc3)c3ccc(OCc4c(F)cccc4Cl)cc3CC[C@@H]12 [Example 22, (1S,3R,4S)-4-[(3aR,9bR)-7-[(2-chloro-6-fluorophenyl)methoxy]-9b-(4-fluorobenzenesulfonyl)-1H,2H,3H,3aH,4H,5H9bH-benzo[e]indole-3-carbonyl]-3-methylcyclohexane-1-carboxylic acid] | 17 nM |
| O=C(O)[C@H]1CC[C@](O)(C(=O)N2CC[C@@]3(S(=O)(=O)c4ccc(F)cc4)c4ccc(OCc5c(F)cccc5Cl)cc4CC[C@@H]23)CC1 [Example 23, (1s,4s)-4-[(3aR,9bR)-7-[(2-chloro-6-fluorophenyl)methoxy]-9b-(4-fluorobenzenesulfonyl)-1H,2H,3H,3aH,4H,5H,9bH-benzo[e]indole-3-carbonyl]-4-hydroxycyclohexane-1-carboxylic acid] | 55 nM |
| C[C@]1(C(=O)O)CC[C@H](C(=O)N2CC[C@@]3(S(=O)(=O)c4ccc(F)cc4)c4ccc(OCc5c(F)cccc5C(F)(F)F)cc4CC[C@@H]23)CC1 [Example 25, (1r,4r)-4-[(3aR,9bR)-7-{[2-fluoro-6-(trifluoromethyl)phenyl]methoxy}-9b-(4-fluorobenzenesulfonyl)-1H,2H,3H,3aH,4H,5H,9bH-benzo[e]indole-3-carbonyl]-1-methylcyclohexane-1-carboxylic acid] | 20 nM |
| C[C@@H]1C[C@@H](C(=O)O)CC[C@@H]1C(=O)N1CC[C@@]2(S(=O)(=O)c3ccc(F)cc3)c3ccc(OCc4c(F)cccc4C(F)(F)F)cc3CC[C@@H]12 [Example 26, (1S,3R,4S)-4-[(3aR,9bR)-7-{[2-fluoro-6-(trifluoromethyl)phenyl]methoxy}-9b-(4-fluorobenzenesulfonyl)-1H,2H,3H,3aH,4H,5H,9bH-benzo[e]indole-3-carbonyl]-3-methylcyclohexane-1-carboxylic acid] | 27 nM |
| O=C(O)[C@H]1CC[C@](O)(C(=O)N2CC[C@@]3(S(=O)(=O)c4ccc(F)cc4)c4ccc(OCc5c(F)cccc5C(F)(F)F)cc4CC[C@@H]23)CC1 [Example 27, (1 s,4 s)-4-[(3aR,9bR)-7-{ [2-fluoro-6-(trifluoromethyl)phenyl]methoxy} -9b-(4-fluorobenzenesulfonyl)-1H,2H,3H,3aH,4H,5H,9bH-benzo[e]indole-3-carbonyl] -4-hydroxycyclohexane-1-carboxylic acid] | 99 nM |
| O=C1CC[C@@H](C(=O)N2CC[C@@]3(S(=O)(=O)c4ccc(F)cc4)c4ccc(OCc5c(F)cccc5C(F)(F)F)cc4CC[C@@H]23)N1Cc1ccc(F)cc1 [Example 28, (5S)-5-[(3aR,9bR)-7-{[2-fluoro-6-(trifluoromethyl)phenyl]methoxy} -9b-(4-fluorobenzenesulfonyl)-1H,2H,3H,3aH,4H,5H,9bH-benzo[e]indole-3-carbonyl]-1-[(4-fluorophenyl)methyl]pyrrolidin-2-one] | 8.2 nM |
| CC(C#N)CN1C(=O)CC[C@H]1C(=O)N1CC[C@@]2(S(=O)(=O)c3ccc(F)cc3)c3ccc(OCc4c(F)cccc4C(F)(F)F)cc3CC[C@@H]12 (stereo partly drawn) [Example 29, 3-[(2S)-2-[(3aR,9bR)-7-{[2-fluoro-6-(trifluoromethyl)phenyl]methoxy} -9b-(4-fluorobenzenesulfonyl)-1H,2H,3H,3aH,4H,5H9bH-benzo[e]indole-3-carbonyl]-5-oxopyrrolidin-1-yl]-2-methylpropanenitrile] | 3.6 nM |
| CN1C[C@@H](C(=O)N2CC[C@@]3(S(=O)(=O)c4ccc(F)cc4)c4ccc(OCc5c(F)cccc5C(F)(F)F)cc4CC[C@@H]23)NC1=O [Example 30, (4S)-4-[(3aR,9bR)-7-{[2-fluoro-6-(trifluoromethyl)phenyl]methoxy} -9b-(4-fluorobenzenesulfonyl)-1H,2H,3H,3aH,4H,5H,9bH-benzo[e]indole-3-carbonyl]-1-methylimidazolidin-2-one] | 3.9 nM |
| O=C(C1CCS(=O)(=O)CC1)N1CC[C@@]2(S(=O)(=O)c3ccc(F)cc3)c3ccc(Cc4ccccc4)cc3CC[C@@H]12 [Example 31, 4-[(3aR,9bR)-7-benzyl-9b-(4-fluorobenzenesulfonyl)-1H,2H,3H,3aH,4H,5H,9bH-benzo[e]indole-3-carbonyl]-1λ^6-thiane-1,1-dione] | 1.6 nM |
| O=C(C1CCS(=O)(=O)CC1)N1CC[C@@]2(S(=O)(=O)c3ccc(F)cc3)c3ccc(Cc4c(F)cccc4Cl)cc3CC[C@@H]12 [Example 32, 4-[(3aR,9bR)-7-[(2-chloro-6-fluorophenyl)methyl]-9b-(4-fluorobenzenesulfonyl)-1H,2H,3H,3aH,4H,5H,9bH-benzo[e]indole-3-carbonyl]-1λ^6-thiane-1,1-dione] | 1.8 nM |
| O=C(C1CCS(=O)(=O)CC1)N1CC[C@@]2(S(=O)(=O)c3ccc(F)cc3)c3ccc(COc4c(F)cccc4Cl)cc3CC[C@@H]12 [Example 33, 4-[(3aR,9bR)-7-[(2-chloro-6-fluorophenoxy)methyl]-9b-(4-fluorobenzenesulfonyl)-1H,2H,3H,3aH,4H,5H,9bH-benzo[e]indole-3-carbonyl]-1λ^6-thiane-1,1-dione] | 10 nM |
| O=C(O)[C@H]1CC[C@H](C(=O)N2CC[C@@]3(S(=O)(=O)c4ccc(F)cc4)c4ccc(Cc5ccccc5)cc4CC[C@@H]23)CC1 [Example 34, (1r,4r)-4-[(3aR,9bR)-7-benzyl-9b-(4-fluorobenzenesulfonyl)-1H,2H,3H,3aH,4H,5H,9bH-benzo[e]indole-3-carbonyl]cyclohexane-1-carboxylic acid] | 10 nM |
| O=C(C1CCS(=O)(=O)CC1)N1CC[C@@]2(S(=O)(=O)c3ccc(F)cc3)c3ccc(Oc4ccccc4)cc3CC[C@@H]12 [Example 36] | 4.1 nM |
